Laboratory results taken from patent publication US8816095B2, “Na channels, disease, and related assays and compositions” (Georgetown University, priority 2008, dated 2014).

What was measured:
site 2 of the VGSC = assay: [3H]-BTX-B displacement assay at site 2; type: binding, rat; conditions: for % [3H]-BTX Inhibition (40 μM) / % [3H]-BTX Displacement (40 μm): rat brain synaptoneurosomes; for % [3H]-BTX Inhibition (40 μM): Table 9; for % [3H]-BTX Displacement (40 μm): Table 13
human prostate tissue = assay: Staining of human prostate paraffin embedded tissue slices; conditions: 100 μM
Method: The binding and localization of compound 26 in prostate and prostate cancer tissue was studied. Human prostate paraffin embedded tissue slices were stained with 100 μM of compound 26 and dansyl amine.

PC-3 cells [1] = assay: PC-3 cell growth inhibition assay (WST-8); type: cell-based; conditions: Homo sapiens, WST-8, 48 hours
Method: The effect of compound 2 was studied on the proliferation of human androgen independent prostate cancer (PC-3) cells, using a cell viability assay with WST-8. […].
PC-3 cells were added to the wells of a 96 well plate at 7500 cells per well in 100 uL of RPMI medium with 10% serum and allowed to plate down overnight. The medium was then removed and replaced with serum free medium containing the appropriate concentration of drug. DMSO concentration was kept below 1%. At this time WST-8 cell counting reagent was added to the control (T=0) wells and allowed to incubate for 2 hours and the absorbance was read at 450 nm to determine the starting number of cells per well. The plates were incubated for 48 hours, the medium was removed and the wells were washed with 100 uL of PBS. The PBS was removed that the wells were filled with 110 uL of serum free RPMI media containing the WST-8 reagent. After two hours of incubation, the plates absorbance was read at 450 nm and normalized to the control value.

PC-3 cells [2] = assay: PC-3 MTT cell viability assay; type: cell-based; conditions: Homo sapiens, read-out: GI50 ± SEM (10 μM), DPH and JDA-3-135 previously determined
Description: Following the determination that compound CDPNS inhibits the VGSCs that are present in androgen independent PC-3 cells, a 3-(4,5-Dimethylthiazol-2-yl)-2,5-diphenyltetrazolium bromide (MTT) cell viability assay was utilized to measure the ability of compound CDPNS to inhibit PC-3 cell growth via VGSC blockade. In this experiment data yielded from CDPNS was compared to previously determined DPH and JDA-3-135 antiproliferation data (Table 10).

human Nav1.2 = target: T1, human Nav1.2 (Homo sapiens, UniProt Q99250); assay: hNav1.2 functional block, whole-cell patch clamp; type: cell-based
T1 construct: host or cells: HEK
T1 sequence (Q99250 whole entry): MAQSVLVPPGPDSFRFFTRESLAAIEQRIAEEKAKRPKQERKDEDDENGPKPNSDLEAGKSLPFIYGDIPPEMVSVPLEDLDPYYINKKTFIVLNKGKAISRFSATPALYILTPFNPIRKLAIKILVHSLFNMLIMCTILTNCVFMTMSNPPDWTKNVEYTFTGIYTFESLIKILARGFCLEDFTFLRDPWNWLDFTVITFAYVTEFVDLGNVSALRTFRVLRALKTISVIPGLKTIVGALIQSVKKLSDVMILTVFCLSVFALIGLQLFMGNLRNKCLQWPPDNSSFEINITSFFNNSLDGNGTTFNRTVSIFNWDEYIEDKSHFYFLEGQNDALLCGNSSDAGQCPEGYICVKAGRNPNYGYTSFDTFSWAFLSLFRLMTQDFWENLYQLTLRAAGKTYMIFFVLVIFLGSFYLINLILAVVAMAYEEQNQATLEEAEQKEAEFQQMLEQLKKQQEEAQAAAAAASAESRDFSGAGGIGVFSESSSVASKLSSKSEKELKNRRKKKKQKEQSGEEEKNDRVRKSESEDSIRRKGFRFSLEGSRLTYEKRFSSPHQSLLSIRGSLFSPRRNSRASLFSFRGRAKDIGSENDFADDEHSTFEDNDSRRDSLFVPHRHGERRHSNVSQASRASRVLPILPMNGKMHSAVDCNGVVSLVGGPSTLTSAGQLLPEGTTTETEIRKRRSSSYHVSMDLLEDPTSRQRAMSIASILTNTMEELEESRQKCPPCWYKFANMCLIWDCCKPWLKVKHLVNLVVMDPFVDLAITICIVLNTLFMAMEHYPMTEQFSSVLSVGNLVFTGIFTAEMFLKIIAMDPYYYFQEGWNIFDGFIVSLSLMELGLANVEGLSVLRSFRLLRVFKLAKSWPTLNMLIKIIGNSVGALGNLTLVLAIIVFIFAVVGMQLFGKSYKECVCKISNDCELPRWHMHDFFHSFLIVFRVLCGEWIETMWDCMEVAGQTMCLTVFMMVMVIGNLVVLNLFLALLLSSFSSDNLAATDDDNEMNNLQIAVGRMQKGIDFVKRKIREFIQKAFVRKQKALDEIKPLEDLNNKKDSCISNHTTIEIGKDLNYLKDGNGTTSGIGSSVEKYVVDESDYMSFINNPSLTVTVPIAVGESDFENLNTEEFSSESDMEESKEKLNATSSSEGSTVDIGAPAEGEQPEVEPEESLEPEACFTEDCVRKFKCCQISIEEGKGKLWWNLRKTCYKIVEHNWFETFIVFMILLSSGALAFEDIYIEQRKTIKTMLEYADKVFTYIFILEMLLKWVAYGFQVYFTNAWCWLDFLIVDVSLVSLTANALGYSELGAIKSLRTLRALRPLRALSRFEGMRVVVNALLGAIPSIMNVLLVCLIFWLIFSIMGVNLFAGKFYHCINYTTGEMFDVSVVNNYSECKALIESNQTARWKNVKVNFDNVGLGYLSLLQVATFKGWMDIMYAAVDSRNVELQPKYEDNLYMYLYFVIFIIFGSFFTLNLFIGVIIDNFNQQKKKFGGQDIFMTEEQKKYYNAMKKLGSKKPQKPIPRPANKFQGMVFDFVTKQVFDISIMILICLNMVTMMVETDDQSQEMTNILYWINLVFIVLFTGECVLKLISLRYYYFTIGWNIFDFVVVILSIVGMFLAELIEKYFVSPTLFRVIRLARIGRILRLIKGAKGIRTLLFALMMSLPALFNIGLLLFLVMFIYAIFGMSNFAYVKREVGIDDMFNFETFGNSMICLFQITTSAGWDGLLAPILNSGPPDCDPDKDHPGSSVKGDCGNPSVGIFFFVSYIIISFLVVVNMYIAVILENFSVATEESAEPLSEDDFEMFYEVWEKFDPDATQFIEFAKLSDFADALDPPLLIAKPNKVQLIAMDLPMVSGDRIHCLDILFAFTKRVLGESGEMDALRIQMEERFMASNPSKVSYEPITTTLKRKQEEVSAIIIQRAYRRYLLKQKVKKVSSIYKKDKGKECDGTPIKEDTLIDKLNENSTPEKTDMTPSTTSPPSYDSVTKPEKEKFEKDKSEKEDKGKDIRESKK
Method: Of the 20 analogs tested, six had [^3H]-BTX displacement characteristics much greater then that of phenyloin (Table 7), see Schemes 5, 6, 7 and 8 for the chemical synthesis and structure of the tested compounds. Compound 26, having the greatest [^3H]-BTX displacement at 86% ([…]), was further tested for VGSC functional blocking ability in HEK cells stably expressing Nav1.2 (Table 8).
In addition the functional blocking ability of 9 was tested after site two affinities was confirmed. The potential reason for this increased blocking ability stems from the dansyl addition in a hydrophobically receptive region of the binding site in the VGSC (Anderson, J. D., et al. Mol. Cancer. Ther. 2003, 2, 1149-1154; Lenkowski, P et al. Neuropharmacology, 2007, 52, 1044-1054). This enhanced potency could be due to the dansyl substituent interacting with L1465 and 11469, located in S6 of domain III in the binding site, which are believed to be the source of hydrophobic receptivity 17. The ability to inhibit VGSC currents is an important property and represents functional blocking. The ability of CDPNS to inhibit sodium channel currents was assessed at 10 and 100 μM against human Nav1.2 by patch clamp assay (FIG. 10).
Human embryonic kidney cells (HEK) cells stably expressing human Nav1.2 were a kind gift from Dr. H. A. Hartmann (University of Baltimore, Md., USA) and were grown in DMEM/F12 media (Invitrogen, Corp, CA, USA) supplemented with 10% fetal bovine serum, penicillin (100 U/ml), streptomycin (100 μg/ml) and G418 (500 μg/ml; Sigma, Mo., USA). Cells were grown in a humidified atmosphere of 5% CO2 and 95% air at 37° C.
Sodium currents were recorded using the whole-cell configuration of the patch clamp recording technique with an Axopatch 200 amplifier (Axon Instruments, Foster City, Calif.). All voltage protocols were applied using pCLAMP 9 software (Axon, USA) and a Digidata 1322A (Axon, USA). Currents were amplified and low pass filtered (2 kHz) and sampled at 33 kHz. Borosilicate glass pipettes were pulled using a Brown-Flaming puller (model P87, Sutter Instruments Co, Novato, Calif.) and heat polished to produce electrode resistances of 0.5-1.5 MΩ when filled with the following electrode solution (in mM); CsCl 130, MgCl2 1, MgATP 5, BAPTA 10, HEPES 5 (pH adjusted to 7.4 with CsOH). Cells were plated on glass coverslips and superfused with solution containing the following composition; (in mM) NaCl 130, KCl 4, CaCl2 1, MgCl2 5, HEPES 5, and glucose 5 (pH adjusted to 7.4 with NaOH).
Compound 26 was prepared as 100 mM stock solutions in dimethyl sulfoxide (DMSO) and diluted to desired concentration in perfusion solution. The maximum DMSO concentration used was 0.1% and had no effect on current amplitude. All experiments were performed at room temperature (20-22° C.). After establishing whole-cell, a minimum series resistance compensation of 75% was applied. Sodium currents were elicited by a depolarizing step from a holding potential of −100 mV to +10 mV for a duration of 25 ms at 15 s intervals. Compound 26 was applied after a 3 min control period and continued until a steady state current amplitude was observed. All data represent percentage mean block±standard error of the mean (S.E.M.).

hNav1.2 = hNav1.2 (Homo sapiens, UniProt Q99250); conditions: whole-cell patch clamp, hNav1.2 expressing HEK cells; read-out: hNav1.2 electrophysiology IC50; cited from earlier work
hNav1.2, sequence (Q99250 whole entry): as above

[3] = read-out: GI50 in PC3 prostate cancer cells

Compound: CN(C)c1cccc2c(S(=O)(=O)NCCCCCC3(c4cccc(Cl)c4)NC(=O)NC3=O)cccc12 (centres unmarked) [Compound 26, N-(5-(4-(3-chlorophenyl)-2,5-dioxoimidazolidin-4-yl)pentyl)-5-(dimethylamino)naphthalene-1-sulfonamide]
- % [3H]-BTX Inhibition (40 μM) (site 2 of the VGSC): 86.4%
- % [3H]-BTX Displacement (40 μm) (site 2 of the VGSC): 86.4%
- [3H]-BTX-B Binding Data, Displacement % (site 2 of the VGSC; Screen at 40 μM, 2 replicates, referenced to Aconitine): 86%
- binding to human prostate tissue (microscopy) (human prostate tissue): visible due to binding
- GI50 (PC-3 cells [1]; [3]): 9.95 ± 0.07 µM
- GI50 (PC-3 cells [1]; read-out: PC3 GI50 (μg)): 9.95 ± 0.07 µM
- GI50 (PC-3 cells [2]): 36 µM
- % hNaV 1.2 Functional Block (10 μM) (human Nav1.2; Table 8): 58.9±4.1%
- % hNaV 1.2 Functional Block (10 μM) (human Nav1.2; Table 8, listed as CDPNS): 58.9±4.15%
- % hNaV 1.2 Functional Block (10 μM) (human Nav1.2; Table 9): 58.9 ± 4.1%
- % hNaV 1.2 Functional Block (10 μM) (human Nav1.2; Table 9, listed as CDPNS): 58.9±4.1%

Compound: CCCCCCCC1(c2cccc(Cl)c2)NC(=O)NC1=O (centres unmarked) [JDA-3-135]
- % [3H]-BTX Inhibition (40 μM) (site 2 of the VGSC): 69.6%
- % [3H]-BTX Displacement (40 μm) (site 2 of the VGSC): 69.6%
- GI50 (PC-3 cells [1]; [3]): 18.97 ± 0.04 µM
- GI50 (PC-3 cells [1]; read-out: PC3 GI50 (μg)): 18.97 ± 0.04 µM
- IC50 (hNav1.2): 13.9 µM
- GI50 (PC-3 cells [2]): 18.6 ± 1.5 µM
- % hNaV 1.2 Functional Block (10 μM) (human Nav1.2; Table 8): 30.5 ± 5.1%
- % hNaV 1.2 Functional Block (10 μM) (human Nav1.2; Table 9): 30.5 ± 5.1%
- % Nav 1.2 Functional Block (10 μm) (human Nav1.2; 10 μm, Table 13): 30.5 ± 5.1%
